Experimental data taken from patent publication US12492173B2, “Herbicidal substituted N-tetrazolyl aryl carboxamides” (Bayer Aktiengesellschaft, priority 2019, dated 2025).

Legend:
Format in all cases: in vivo
[1] = tested on: Echinochloa crus-galli; assay: Pre-emergence herbicidal action, ECHCG; details: dosage 320 g/ha, scored visually after 3 weeks vs untreated controls (100% = plants have died)
Procedure, shortened: (§1)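 Application took place on the soil surface immediately after sowing into sandy loam, using aqueous WP or EC preparations with 0.2% wetting agent. Visual percent scoring followed 3 weeks later, untreated pots serving as reference.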

[2] = tested on: Pharbitis purpurea; assay: Pre-emergence herbicidal action, PHBPU; details: dosage 320 g/ha, scored visually after 3 weeks vs untreated controls (100% = plants have died)
Procedure, shortened: as §1

[3] = tested on: Setaria viridis; assay: Pre-emergence herbicidal action, SETVI; details: dosage 320 g/ha, scored visually after 3 weeks vs untreated controls (100% = plants have died)
Procedure, shortened: as §1

[4] = tested on: Amaranthus retroflexus; assay: Post-emergence herbicidal action, AMARE; set-up: key: % herbicidal action vs untreated; 100 = plants died, 0 = like control
Procedure, shortened: (§2)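 Percent herbicidal effect was rated visually about 3 weeks after treatment, relative to untreated plants (0% = like control, 100% = dead). Compounds, formulated as WP or EC, went on as aqueous spray (600–800 l/ha, 0.2% wetting agent) to one-leaf-stage plants 2–3 weeks post-sowing in sandy loam.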

[5] = tested on: Pharbitis purpurea; assay: Post-emergence herbicidal action, PHBPU
Procedure, shortened: as §2

[6] = tested on: Setaria viridis; assay: Post-emergence herbicidal action, SETVI; set-up: key: % herbicidal action vs untreated; 100 = plants died, 0 = like control
Procedure, shortened: as §2

SMILES | herbicidal activity ECHCG [1] | herbicidal activity PHBPU [2] | herbicidal activity SETVI [3] | herbicidal action AMARE ([4]; post-emergence, dosage 80 g/ha) | herbicidal action PHBPU ([5]; post-emergence, dosage 80 g/ha) | herbicidal action SETVI ([6]; post-emergence, dosage 80 g/ha) | herbicidal action AMARE ([4]; Dosage 80 g/ha) | herbicidal action PHBPU ([5]; Dosage 80 g/ha) | herbicidal action SETVI ([6]; Dosage 80 g/ha)
CCn1nnnc1NC(=O)c1ccc(C(F)F)c(C[S+]([O-])CC)c1Cl (stereo not drawn) [Example 2-324] | 100% | 100% | 100% | 100% | 100% | 90% |  |  | 
CCn1nnnc1NC(=O)c1ccc(C(F)F)c(CS(=O)(=O)CC)c1Cl [Example 2-325] | 100% | 100% | 100% |  |  |  | 90 | 90 | 100
CCn1nnnc1NC(=O)c1ccc(I)c(C[S+](C)[O-])c1Cl (stereo not drawn) [Example 2-363] | 100% | 80% | 100% |  |  |  | 100 | 90 | 90
CCn1nnnc1NC(=O)c1ccc(C(F)(F)F)c(C[S+]([O-])CC)c1Br (stereo not drawn) [Example 2-384] | 100% | 90% | 100% | 90% | 90% | 90% |  |  | 
CCn1nnnc1NC(=O)c1ccc(C(F)(F)F)c(CS(=O)(=O)CC)c1Br [Example 2-385] | 100% | 80% | 100% | 90% | 80% | 90% |  |  | 
CCCn1nnnc1NC(=O)c1ccc(C(F)(F)F)c(C[S+](C)[O-])c1SC (stereo not drawn) [Example 3-162] | 100% | 90% | 100% | 100% | 90% | 100% |  |  | 
CCCn1nnnc1NC(=O)c1ccc(C(F)(F)F)c(CS(C)(=O)=O)c1SC [Example 3-163] | 100% | 80% | 100% |  |  |  | 90 | 90 | 90
CCCn1nnnc1NC(=O)c1ccc(C(F)(F)F)c(CS(C)(=O)=O)c1Cl [Example 3-298] | 100% | 90% | 100% |  |  |  | 100 | 100 | 80
C=CCSCc1c(C(F)(F)F)ccc(C(=O)Nc2nnnn2CCC)c1Cl [Example 3-308] | 100% | 100% | 100% |  |  |  | 100 | 90 | 100
CCCn1nnnc1NC(=O)c1ccc(C(F)(F)F)c(CSCC2CC2)c1Cl [Example 3-314] | 90% | 80% | 100% | 100% | 100% | 100% |  |  | 
CCCn1nnnc1NC(=O)c1ccc(C(F)F)c(CS(C)(=O)=O)c1Cl [Example 3-322] | 100% | 90% | 100% |  |  |  | 90 | 90 | 80
CCCn1nnnc1NC(=O)c1ccc(C(F)F)c(CSCC)c1Cl [Example 3-323] | 100% | 100% | 100% |  |  |  | 90 | 90 | 100
CCCn1nnnc1NC(=O)c1ccc(C(F)(F)F)c(C[S+]([O-])CC)c1Br (stereo not drawn) [Example 3-384] | 100% | 90% | 100% |  |  |  | 90 | 80 | 100
